The values below come from patent publication US10959986B2, “Inhibitors of indoleamine 2,3-dioxygenase and methods of their use” (BRISTOL-MYERS SQUIBB COMPANY, priority 2018, dated 2021).

The IC50 is the concentration needed to halve the response being measured.

Each structure is given as a SMILES string. Where two headings read alike, the source gives them in different places.

For this test, the target named is T1, indoleamine 2,3-dioxygenase (IDO) (Homo sapiens, UniProt P14902).
T1 construct: media containing IFNγ (#285-IF/CF, R&D Systems) at a final concentration of 25 ng/mL; endogenous in cells; host or cells: HeLa (ATCC CCL-2), induced with IFN-gamma
Description: HeLa cell-based indoleamine 2,3-dioxygenase (IDO) assay. As to conditions: HeLa cells with IFNγ 25 ng/mL, 48 hour incubation, kynurenine production. Here is the method:
Assessment of Inhibitor Activity in HeLa Cell-Based Indoleamine 2,3-Dioxygenase (IDO) Assay.
HeLa (ATCCR CCL-2) cells were obtained from the ATCC® and cultured in Dulbecco's Modified Eagle Medium supplemented with 4.5 g/L glucose, […] L-glutamine and […] (#10-013-CV, Corning), 2 mM L-alanyl-L-glutamine dipeptide (#35050-061, Gibco), 100U/mL penicillin, 100 µg/mL streptomycin (#SV30010, HyClone) and 10% fetal bovine serum (#SH30071.03 HyClone). Cells were maintained in a humidified incubator at 37° C. in 5% CO2.
IDO activity was assessed as a function of kynurenine production as follows: HeLa cells were seeded in a 96-well culture plate at a density of 5,000 cells/well and allowed to equilibrate overnight. After 24 hours, the media was aspirated and replaced with media containing IFNγ (#285-IF/CF, R&D Systems) at a final concentration of 25 ng/mL. A serial dilution of each test compound was added to the cells in a total volume of 200 μL of culture medium. After a further 48 hour incubation, 170 μL of supernatant was transferred from each well to a fresh 96-well plate. 12.1 μL of 6. IN trichloroacetic acid (#T0699, Sigma-Aldrich) was added to each well and mixed, followed by incubation at 65° C. for 20 minutes to hydrolyze N-formylkynurenine, the product of indoleamine 2,3-dioxygenase, to kynurenine. The reaction mixture was then centrifuged for 10 mins at 500×g to sediment the precipitate. 100 μL of the supernatant was transferred from each well to a fresh 96-well plate. 100 μl of 2% (w/v) p-dimethylaminobenzaldehyde (#15647-7, Sigma-Aldrich) in acetic acid (#A6283, Sigma-Aldrich) was added to each well mixed and incubated at room temperature for 20 mins. Kynurenine concentrations were determined by measuring absorbance at 480 nm and calibrating against an L-kynurenine (#K8625, Sigma-Aldrich) standard curve using a SPECTRAMAX® M2e microplate reader (Molecular Devices). The percentage activity at each inhibitor concentration was determined and IC50 values assessed using nonlinear regression.

The mark [1] stands for this setting: read-out: IDO Hela IC50 potency class (A < 50, B < 250, C < 2000).

T1 sequence (P14902 whole entry): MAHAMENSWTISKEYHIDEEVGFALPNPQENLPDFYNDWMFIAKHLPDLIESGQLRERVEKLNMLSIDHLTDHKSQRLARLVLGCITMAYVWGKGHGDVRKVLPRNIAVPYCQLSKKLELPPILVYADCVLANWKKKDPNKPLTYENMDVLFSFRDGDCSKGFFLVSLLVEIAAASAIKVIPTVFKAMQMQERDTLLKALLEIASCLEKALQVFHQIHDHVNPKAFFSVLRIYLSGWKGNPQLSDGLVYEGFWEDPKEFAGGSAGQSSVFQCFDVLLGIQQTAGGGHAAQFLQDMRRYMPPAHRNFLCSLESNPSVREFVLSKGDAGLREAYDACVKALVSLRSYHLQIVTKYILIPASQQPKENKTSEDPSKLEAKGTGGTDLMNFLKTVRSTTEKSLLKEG

In the case of `CC[C@H](CC(=O)O)c1ccc(-c2cnn(C)c2)c(Nc2ccc(Cl)cc2F)c1` (single isomer, unassigned) [Example 2], the IC50 (read-out: IDO Hela IC50) was 10 nM.
Same read-out and setting: as for `CC[C@H](CC(=O)O)c1ccc(-c2cnn(C)c2)c(Nc2ccc(F)cc2)c1` (single isomer, unassigned) [Example 3], the figure is 40 nM.
The same measure, in the same setting: under `CC[C@H](CC(=O)O)c1ccc(-c2cnn(C)c2)c(Nc2ccc(Cl)cc2)c1` (single isomer, unassigned) [Example 4] stands 10 nM; under `CC[C@H](CC(=O)O)c1ccc(-c2cnn(C)c2)c(Nc2ccc(C#N)cc2)c1` (single isomer, unassigned) [Example 5], 110 nM; under `CC[C@H](CC(=O)O)c1ccc(-c2cnn(C)c2)c(Nc2ccc(Cl)cn2)c1` (single isomer, unassigned) [Example 6], 470 nM.
As to `CC[C@H](CC(=O)O)c1ccc(-c2cnn(C)c2)c(Nc2cccc(Cl)c2)c1` (single isomer, unassigned) [Example 7], the IC50 (read-out: IDO Hela IC50) is at least 1000 nM and the IC50 under setting [1] lay in the range of 250 to 2000 nM.
For the molecule `CC[C@H](CC(=O)O)c1ccc(-c2cnn(C)c2)c(Nc2cccc(F)c2)c1` (single isomer, unassigned) [Example 8], the IC50 (read-out: IDO Hela IC50) worked out at 380 nM.
Same read-out and setting: as for `CC[C@H](CC(=O)O)c1ccc(-c2cnn(C)c2)c(Nc2ccc(Cl)c(F)c2)c1` (single isomer, unassigned) [Example 9], the figure is 20 nM; as for `CC[C@H](CC(=O)O)c1ccc(-c2cnn(C)c2)c(Nc2ccc(C)cc2)c1` (single isomer, unassigned) [Example 10], 40 nM.
For the molecule `CC[C@H](CC(=O)O)c1ccc(-c2cnn(C)c2)c(Nc2cccnc2)c1` (single isomer, unassigned) [Example 11], the IC50 (read-out: IDO Hela IC50) is at least 1000 nM and the IC50 under setting [1] is 250 to 2000 nM.
Regarding `CC[C@H](CC(=O)O)c1ccc(-c2cnn(C)c2)c(Nc2cnc(C)nc2)c1` (single isomer, unassigned) [Example 12], the IC50 by setting is: (read-out: IDO Hela IC50) at least 1000 nM; under setting [1], 250 to 2000 nM.
The like results for `CCc1ncc(Nc2cc([C@H](CC)CC(=O)O)ccc2-c2cnn(C)c2)cn1` (single isomer, unassigned) [Example 13] were, in that order, at least 1000 nM and 250 to 2000 nM.
Take `CC[C@H](CC(=O)O)c1ccc(-c2cnn(C)c2)c(Nc2ccc(C(F)(F)F)cc2)c1` (single isomer, unassigned) [Example 14]: the IC50 (read-out: IDO Hela IC50) amounted to 40 nM.
Turning to `CC[C@H](CC(=O)O)c1ccc(-c2cnn(C)c2)c(Nc2ccccn2)c1` (single isomer, unassigned) [Example 15], the IC50 is, setting by setting: (read-out: IDO Hela IC50) at least 1000 nM; under setting [1], 250 to 2000 nM.
With `CC[C@H](CC(=O)O)c1ccc(-c2cnn(C)c2)c(Nc2ccc(C#N)cn2)c1` (single isomer, unassigned) [Example 16], the IC50 reads like this: (read-out: IDO Hela IC50) at least 1000 nM; under setting [1], 250 to 2000 nM.
As for `CC[C@H](CC(=O)O)c1ccc(-c2c(C)noc2C)c(Nc2ccc(Cl)cc2)c1` (single isomer, unassigned) [Example 17], the IC50 (read-out: IDO Hela IC50) was 10 nM.
On to `CC[C@H](CC(=O)O)c1ccc(-c2cn[nH]c2)c(Nc2ccc(Cl)cc2)c1` (single isomer, unassigned) [Example 18], for which, for the setting “read-out: IDO Hela IC50”, the IC50 came out at 70 nM.
Consider `CC[C@H](CC(=O)O)c1ccc(-c2nc(C)cs2)c(Nc2ccc(Cl)cc2)c1` (single isomer, unassigned) [Example 19], for which the IC50 was at least 1000 nM (read-out: IDO Hela IC50) and 250 to 2000 nM under setting [1].
In the case of `CC[C@H](CC(=O)O)c1ccc(-c2nc(-c3ccccc3)cs2)c(Nc2ccc(Cl)cc2)c1` (single isomer, unassigned) [Example 20], under “read-out: IDO Hela IC50”, the IC50 is 30 nM.
Turning to `CC[C@H](CC(=O)O)c1ccc(-c2nccs2)c(Nc2ccc(Cl)cc2)c1` (single isomer, unassigned) [Example 21], the IC50 is at least 1000 nM (read-out: IDO Hela IC50) and 250 to 2000 nM under setting [1].
Turning to `CC[C@H](CC(=O)O)c1ccc(-c2nnc(C)s2)c(Nc2ccc(Cl)cc2)c1` (single isomer, unassigned) [Example 22], under “read-out: IDO Hela IC50”, the IC50 came to 30 nM.
With `CC[C@H](CC(=O)O)c1ccc(-c2cnn(C)c2)c(NC(=O)Nc2ccc(Cl)cc2F)c1` (single isomer, unassigned) [Example 23], the half-maximal inhibitory concentration (IC50) (read-out: IDO Hela IC50) was at least 1000 nM and the IC50 under setting [1] is 250 to 2000 nM.
For the molecule `CC[C@H](CC(=O)O)c1ccc(-c2cnn(C(C)C)c2)c(NC(=O)Nc2ccc(Cl)cc2F)c1` (single isomer, unassigned) [Example 24], the IC50 by setting is: (read-out: IDO Hela IC50) at least 1000 nM; under setting [1], 250 to 2000 nM.
For the molecule `CCOc1ncc(Nc2cc([C@H](CC)CC(=O)O)ccc2C2CCN(C(=O)OC(C)(C)C)CC2)cn1` (single isomer, unassigned) [Example 25], the IC50 (read-out: IDO Hela IC50) was found to be 20 nM.
The same measure, in the same setting: as for `CCOc1ncc(Nc2cc([C@@H](CC)CC(=O)O)ccc2C2CCN(C(=O)OC(C)(C)C)CC2)cn1` (single isomer, unassigned) [Example 26], the figure is 20 nM; as for `CC[C@H](CC(=O)O)c1ccc(C2CCN(C(=O)OC(C)(C)C)CC2)c(Nc2cnc(C)nc2)c1` (single isomer, unassigned) [Example 27], 820 nM; as for `CC[C@@H](CC(=O)O)c1ccc(C2CCN(C(=O)OC(C)(C)C)CC2)c(Nc2cnc(C)nc2)c1` (single isomer, unassigned) [Example 28], 760 nM.
On the same count and under the same terms, as for `CCc1ncc(Nc2cc([C@H](CC)CC(=O)O)ccc2C2CCN(C(=O)OC(C)(C)C)CC2)cn1` (single isomer, unassigned) [Example 29], the figure is 130 nM.
On to `CC[C@H](CC(=O)O)c1ccc(C2CCN(C(=O)OC(C)(C)C)CC2)c(Nc2ccc(C#N)cc2)c1` (single isomer, unassigned) [Example 30], for which, under setting [1], the IC50 is under 50 nM.
In the case of `CCc1ncc(Nc2cc([C@@H](CC)CC(=O)O)ccc2C2CCN(C(=O)OC(C)(C)C)CC2)cn1` (single isomer, unassigned) [Example 31], the IC50 (read-out: IDO Hela IC50) is 20 nM.
Regarding `CC[C@@H](CC(=O)O)c1ccc(C2CCN(C(=O)OC(C)(C)C)CC2)c(Nc2ccc(C#N)cc2)c1` (single isomer, unassigned) [Example 32], the IC50 under setting [1] was under 50 nM.
Consider `COC[C@@H](CC(=O)O)c1ccc(-c2cnn(C)c2)c(Nc2ccc(C#N)cc2)c1` (single isomer, unassigned) [Example 33, 3-(3-((4-cyanophenyl)amino)-4-(1-methyl-1H-pyrazol-4-yl)phenyl)-4-methoxybutanoic Acid], for which the IC50 (read-out: IDO Hela IC50) was at least 1000 nM and the IC50 under setting [1] was 250 to 2000 nM.
Turning to `COC[C@@H](CC(=O)O)c1ccc(-c2ccc3c(c2)OCO3)c(Nc2ccc(C#N)cc2)c1` (single isomer, unassigned) [Example 34], the IC50 (read-out: IDO Hela IC50) was 320 nM.
For `COC[C@@H](CC(=O)O)c1ccc(-c2ccoc2)c(Nc2ccc(C#N)cc2)c1` (single isomer, unassigned) [Example 35], the IC50 (read-out: IDO Hela IC50) is 10 nM.
Consider `COC[C@@H](CC(=O)O)c1ccc(-c2cnn(Cc3ccc(OC)cc3)c2)c(Nc2ccc(C#N)cc2)c1` (single isomer, unassigned) [Example 36], for which the IC50 (read-out: IDO Hela IC50) was 30 nM.
The same measure, in the same setting: as for `COC[C@H](CC(=O)O)c1ccc(-c2ccc3c(c2)OCO3)c(Nc2ccc(C#N)cc2)c1` (single isomer, unassigned) [Example 38], the figure is 50 nM; as for `COC[C@H](CC(=O)O)c1ccc(-c2ccoc2)c(Nc2ccc(C#N)cc2)c1` (single isomer, unassigned) [Example 39], 20 nM; as for `COC[C@H](CC(=O)O)c1ccc(-c2ccc3c(c2)CCO3)c(Nc2ccc(C#N)cc2)c1` (single isomer, unassigned) [Example 40], 90 nM.
In the case of `COC[C@H](CC(=O)O)c1ccc(-c2cncnc2)c(Nc2ccc(C#N)cc2)c1` (single isomer, unassigned) [Example 43], the IC50 runs as follows: (read-out: IDO Hela IC50) at least 1000 nM; under setting [1], 250 to 2000 nM.
Take `COC[C@H](CC(=O)O)c1ccc(-c2cnn(Cc3ccccc3)c2)c(Nc2ccc(C#N)cc2)c1` (single isomer, unassigned) [Example 44]: the IC50 (read-out: IDO Hela IC50) is 450 nM.
Same read-out and setting: under `COC[C@H](CC(=O)O)c1ccc(-c2cnn(Cc3ccc(OC)cc3)c2)c(Nc2ccc(C#N)cc2)c1` (single isomer, unassigned) [Example 45] stands 50 nM.
Regarding `CCOc1ncc(Nc2cc([C@H](CC)CC(=O)O)ccc2-c2ccoc2)cn1` (single isomer, unassigned) [Example 46], the IC50 (read-out: IDO Hela IC50) is 40 nM.
